Data set [1] relates to exon 11-like immunoreactivity (E11-LI). Nature of the data set: Immunohistochemical labeling (exon 11-like immunoreactivity) in striatum after antisense treatment. The class given is in vivo, mouse. The following applies: 10 μg i.c.v. daily for 4 days, perfused on fifth day; p<0.05.
In data set [2] the test system is exon 11-containing mRNA. Nature of the data set: RT-PCR of exon 11-containing mRNA in brains of mice given antisense i.c.v. Format: in vivo, mouse. Conditions: 10 μg i.c.v. daily for 4 days, brain RNA on fifth day.
The test system of data set [3] is MOR-1 gene. Nature of the data set: In vivo antisense mapping, radiant heat tailflick assay of opioid analgesia. Also noted: species or system mice. The following applies: 5 μg oligodeoxynucleotide on days 1, 3 and 5, tailflick on day 6.

For the substance “antisense E11A: antisense oligodeoxynucleotide targeting exon 11: 5′GACAGTCACTGGTGCCTATGCAAT3′ (SEQ ID NO 48) (DNA, backbone not given here)”, in data set [1], the “downregulation of immunohistochemical labeling in the striatum compared to the control group” value is “over 50%”. In addition, the “lowering of the levels of exon 11 expression (RT-PCR)” value in data set [2] is given as “approximately 40%”.

For “exon 1 probe: antisense probe targeting exon 1: 5′CGCCCCAGCCTCTTCCTCT3′ (SEQ ID NO 47) (listed as DNA, chemistry not given here)”, in data set [3], the “effect on spinal (i.t.) M6G analgesia” value is “inactive”, the “effect on spinal (i.t.) morphine analgesia” value is “not spinally”, the “effect on supraspinal (i.c.v.) M6G analgesia” value is “inactive” and the “effect on supraspinal (i.c.v.) morphine analgesia” value was “reduced”.

On to “mismatch E11A: mismatch probe based upon the 11a antisense probe: 5′GACGATCACGTGTGCTCATGACAT3′ (SEQ ID NO 50) (listed as DNA, chemistry not given here) [reference compound]”, for which the “downregulation of immunohistochemical labeling in the striatum compared to the control group” value in data set [1] is “without effect”. For the same substance, the “lowering of the levels of exon 11 expression (RT-PCR)” value in data set [2] was “inactive”. For the same substance, the “effect on opioid (morphine or M6G) analgesia, mismatch control” value in data set [3] is “inactivity”.
